Results: US10774064B2 (Cadent Therapeutics, Inc., priority 2016, dated 2020)
Where a name gives a salt, the structure may show the parent alone.

Each compound was assayed against T1, small-conductance Ca2+-activated K+ channels (SK channels, subtype 2) (Homo sapiens, UniProt Q9H2S1) (assay: whole-cell patch-clamp of ionic current through SK2 channels in HEK293 cells (SC100)). Details: whole-cell patch-clamp, HEK293 cells expressing SK2 channels; concentration that increases the basal current by 100%.
T1 construct: expressed in transfected cells; host or cells: HEK293
Type: cell-based
In short: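 SC100, the concentration doubling basal current (a 100% increase), was taken from SK2 currents recorded by whole-cell patch-clamp in SK2-expressing HEK293 cells.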

Row | Structure (SMILES) | SC100 (μM)
1 | COc1cc(NC2CCC(C)(C)CC2)nc(-c2nc(C)cs2)n1 [IN11055-069-P1, N-(4,4-dimethylcyclohexyl)-6-methoxy-2-(4-methylthiazol-2-yl)pyrimidin-4-amine] | ++ (++ means 200 nM-1000 nM)
2 | COc1cc(NC2CCC(C)(C)CC2)nc(-n2ccc(C)n2)n1 [IN11055-078-P1, N-(4,4-dimethylcyclohexyl)-6-methoxy-2-(3-methyl-1H-pyrazol-1-yl)pyrimidin-4-amine] | + (+ means >1 uM)
3 | COc1cc(NC2CCC(F)CC2)nc(-n2nc(C)cc2C)n1 (centres unmarked) [IN11055-079-P1] | + (+ means >1 uM)
4 | COc1cc(NC2CC3CCC2C3)nc(-c2nc(C)cs2)n1 (centres unmarked) [IN11055-087-P1] | + (+ means >1 uM)
5 | Cc1csc(-c2nc(NC3CCC(F)(F)CC3)cc(OCc3cnco3)n2)n1 [IN11059-047-P1] | +++ (+++ means <200 nM)
6 | Cc1csc(-c2nc(NC3CCC(F)(F)CC3)cc(OCCNS(C)(=O)=O)n2)n1 [IN11059-052-P1] | ++ (++ means 200 nM-1000 nM)
7 | Cc1ccn(-c2nc(NC3CCC(F)(F)CC3)cc([S+](C)[O-])n2)n1 (centres unmarked) [IN11059-069-P1] | ++ (++ means 200 nM-1000 nM)
8 | CSc1cc(NC2CCC(F)(F)CC2)nc(-n2ccc(C)n2)n1 [IN11059-070-P1] | ++ (++ means 200 nM-1000 nM)
9 | Cc1ccn(-c2nc(NC3CCC(F)(F)CC3)cc(S(C)(=O)=O)[n+]2[O-])n1 [IN11059-071-P1] | + (+ means >1 uM)
10 | CC(=O)N(C)Cc1cc(NC2CCC(F)(F)CC2)nc(-c2nc(C)cs2)n1 [IN11059-090-P1] | ++ (++ means 200 nM-1000 nM)
11 | Cc1csc(-c2nc(CN(C)C=O)cc(NC3CCC(F)(F)CC3)n2)n1 [IN11059-095-P1] | ++ (++ means 200 nM-1000 nM)
12 | CNCc1cc(NC2CCC(F)(F)CC2)nc(-c2nc(C)cs2)n1 [IN11059-096-P1, N-(4,4-difluorocyclohexyl)-6-((methylamino)methyl)-2-(4-methylthiazol-2-yl)pyrimidin-4-amine] | + (+ means >1 uM)
13 | CCOc1cc(NC2CCC(F)(F)CC2)nc(-n2ccc(C)n2)n1 [IN11063-005-P1] | + (+ means >1 uM)
14 | Cc1ccn(-c2cc(CN(C)C)cc(NC3CCC(F)(F)CC3)n2)n1 [IN11063-006-P1, N-(4,4-difluorocyclohexyl)-4-((dimethylamino)methyl)-6-(3-methyl-1H-pyrazol-1-yl)pyridin-2-amine] | ++ (++ means 200 nM-1000 nM)
15 | COC(=O)NC(C)(C)c1cc(NC2CCC(F)(F)CC2)nc(-n2ccc(C)n2)c1 [IN11063-030-P1, methyl (2-(2-((4,4-difluorocyclohexyl)amino)-6-(3-methyl-1H-pyrazol-1-yl)pyridin-4-yl)propan-2-yl)carbamate] | + (+ means >1 uM)
16 | Cc1cc(NC2CCC(F)(F)CC2)cc(-c2nc(C)cs2)c1 [IN11063-086-P2, N-(4,4-difluorocyclohexyl)-3-methyl-5-(4-methylthiazol-2-yl) aniline] | + (+ means >1 uM)
17 | Cc1csc(-c2cc(N)cc(NC3CCC(F)(F)CC3)n2)n1 [IN11063-087-P1, N2-(4,4-difluorocyclohexyl)-6-(4-methylthiazol-2-yl)pyridine-2,4-diamine] | ++ (++ means 200 nM-1000 nM)
18 | Cc1ccn(-c2nc(N3CCOCC3)cc3c2CCN3)n1 [IN11063-092-P1, 4-(4-(3-methyl-1H-pyrazol-1-yl)-2,3-dihydro-1H-pyrrolo[3,2-c]pyridin-6-yl)morpholine hydrochloride] | + (+ means >1 uM)
19 | CNc1cc(NC2CCC(F)(F)CC2)nc(-c2nc(C)cs2)c1 [IN11063-096-P1, N2-(4,4-difluorocyclohexyl)-N4-methyl-6-(4-methylthiazol-2-yl)pyridine-2,4-diamine] | ++ (++ means 200 nM-1000 nM)
20 | CC(=O)N1CCCC(OCc2cc(NC3CCC(F)(F)CC3)nc(-n3ccc(C)n3)c2)C1 (centres unmarked) [IN11067-003-P1] | ++ (++ means 200 nM-1000 nM)
21 | COC(=O)N1CCCC(OCc2cc(NC3CCC(F)(F)CC3)nc(-n3ccc(C)n3)c2)C1 (centres unmarked) [IN11067-004-P1] | ++ (++ means 200 nM-1000 nM)
22 | Cc1cc(C)n(-c2cc(OCc3ncco3)cc(NC3CCC(F)(F)CC3)n2)n1 [IN11067-023-P1, N-(4,4-difluorocyclohexyl)-6-(3,5-dimethyl-1H-pyrazol-1-yl)-4-(oxazol-2-ylmethoxy)pyridin-2-amine] | +++ (+++ means <200 nM)
23 | COc1cc(NC2CCCCC2)nc(-c2nc(C)cs2)n1 [IN11067-035-P1] | ++ (++ means 200 nM-1000 nM)
24 | CSc1cc(NC2CCC(F)(F)CC2)nc(-n2nc(C)cc2C)n1 [IN11067-060-P1, N-(4,4-difluorocyclohexyl)-2-(3,5-dimethyl-1H-pyrazol-1-yl)-6-(methylthio)pyrimidin-4-amine] | + (+ means >1 uM)
25 | Cc1cc(C)n(-c2nc(NC3CCC(F)(F)CC3)cc(S(C)(=O)=O)n2)n1 [IN11067-061-P1] | + (+ means >1 uM)

Row | Structure (SMILES) | SC100 (μM)
26 | Cc1cc(C)n(-c2nc(NC3CCC(F)(F)CC3)cc([S+](C)[O-])n2)n1 (centres unmarked) [IN11067-062-P1] | + (+ means >1 uM)
27 | COc1cc(NC2CCC(F)CC2)nc(-c2nc(C)cs2)n1 (centres unmarked) [IN11067-072-P1] | + (+ means >1 uM)
28 | Cc1csc(-c2nc(NC3CCC(F)(F)CC3)cc(OC3CCOCC3)n2)n1 [IN11079-007-P1] | + (+ means >1 uM)
29 | FC1(F)CCC(Nc2cc(N3CCOCC3)nc(-n3ccc(C(F)(F)F)n3)n2)CC1 [IN11079-009-P1, N-(4,4-difluorocyclohexyl)-6-morpholino-2-(3-(trifluoromethyl)-1H-pyrazol-1-yl)pyrimidin-4-amine] | ++ (++ means 200 nM-1000 nM)
30 | Cc1csc(-c2nc(NC3CCC(F)(F)CC3)cc(OC3CCOC3)n2)n1 (centres unmarked) [IN11079-014-P1] | + (+ means >1 uM)
31 | Cc1csc(-c2nc(NC3CCC(F)(F)CC3)cc(OC3COC3)n2)n1 [IN11079-033-P1] | ++ (++ means 200 nM-1000 nM)
32 | CCOc1ccn(-c2nc(C)cc(NC3CCC(F)(F)CC3)n2)n1 [IN11079-040-P1, N-(4,4-difluorocyclohexyl)-2-(3-ethoxy-1H-pyrazol-1-yl)-6-methylpyrimidin-4-amine] | + (+ means >1 uM)
33 | Cc1csc(-c2cnc(NC3CCC(F)(F)CC3)c(C)n2)n1 [IN11079-047-P1, N-(4,4-difluorocyclohexyl)-3-methyl-5-(4-methylthiazol-2-yl) pyrazin-2-amine] | + (+ means >1 uM)
34 | Cc1cc(NC2CCC(F)(F)CC2)nc(-n2ccc(OCc3ccccc3)n2)n1 [IN11079-066-P1, 2-(3-(benzyloxy)-1H-pyrazol-1-yl)-N-(4,4-difluorocyclohexyl)-6-methyl pyrimidin-4-amine] | + (+ means >1 uM)
35 | Cc1cc(NC2CCC(F)(F)CC2)nc(-n2ccc(=O)[nH]2)n1 [IN11079-067-P1, 1-(4-((4,4-difluorocyclohexyl)amino)-6-methylpyrimidin-2-yl)-1H-pyrazol-3-ol] | + (+ means >1 uM)
36 | COc1cc(NC2CCSCC2)nc(-c2nc(C)cs2)n1 [IN11079-072-P1] | + (+ means >1 uM)
37 | Cc1ccn(-c2cc(CN3CCCOC3=O)cc(NC3CCC(F)(F)CC3)n2)n1 [IN11083-014-P1] | + (+ means >1 uM)
38 | Cc1csc(-c2cc(NC(=O)OC(C)(C)C)cc(NC3CCC(F)(F)CC3)n2)n1 [IN11083-048-P1, tert-butyl (2-((4,4-difluorocyclohexyl)amino)-6-(4-methylthiazol-2-yl)pyridin-4-yl) carbamate] | +++ (+++ means <200 nM)
39 | COc1c(NC2CCC(F)(F)CC2)nc(-c2nc(C)cs2)nc1C(C)O (centres unmarked) [IN11104-039-P1, 1-(6-((4,4-difluorocyclohexyl)amino)-5-methoxy-2-(4-methylthiazol-2-yl)pyrimidin-4-yl)ethan-1-ol] | + (+ means >1 uM)
40 | COC(=O)NCCOc1nc(-c2nc(C)cs2)nc(NC2CCC(F)(F)CC2)c1OC [IN11104-041-P1] | ++ (++ means 200 nM-1000 nM)
41 | CC(=O)c1cc(NC2CCC(F)(F)CC2)cc(-c2nc(C)cs2)c1 [IN11104-059-P1, 1-(3-((4,4-difluorocyclohexyl)amino)-5-(4-methylthiazol-2-yl)phenyl) ethan-1-one] | + (+ means >1 uM)
42 | Cc1csc(-c2cc(NC3CCC(F)(F)CC3)cc(C(C)O)c2)n1 (centres unmarked) [IN11104-077-P1, 1-(3-((4,4-difluorocyclohexyl)amino)-5-(4-methylthiazol-2-yl)phenyl) ethan-1-ol] | + (+ means >1 uM)
43 | COc1cc(NC2CCC3(CC2)COC3)nc(-c2nc(C)cs2)n1 [IN11104-084-P2] | + (+ means >1 uM)
44 | CC(=O)c1cc(N2CCOCC2)cc(NC2CCC(F)(F)CC2)n1 [IN11104-090-P1, 1-(6-((4,4-difluorocyclohexyl)amino)-4-morpholinopyridin-2-yl) ethan-1-one] | + (+ means >1 uM)
45 | Cc1csc(-c2nc(NC3CCC(F)(F)CC3)cc(C(C)C#N)n2)n1 (centres unmarked) [IN11104-094-P1, 2-(6-((4,4-difluorocyclohexyl)amino)-2-(4-methylthiazol-2-yl)pyrimidin-4-yl) propanenitrile] | ++ (++ means 200 nM-1000 nM)
46 | Cc1nccc(-c2cc(N3CCOCC3)cc(NC3CCC(F)(F)CC3)n2)n1 [IN11104-095-P1, N-(4,4-difluorocyclohexyl)-6-(2-methylpyrimidin-4-yl)-4-morpholinopyridin-2-amine] | + (+ means >1 uM)
47 | COC(C)c1cc(N(C)C2CCC(F)(F)CC2)nc(-n2ccc(C3CC3)n2)n1 (centres unmarked) [IN11104-100-P1, 2-(3-cyclopropyl-1H-pyrazol-1-yl)-N-(4,4-difluorocyclohexyl)-6-(1-methoxyethyl)-N-methylpyrimidin-4-amine] | + (+ means >1 uM)
48 | COc1cc(NC2CCOCC2)nc(-c2nc(C)cs2)n1 [IN11106-004-P1] | + (+ means >1 uM)
49 | COc1cc(NC2CCCOC2)nc(-c2nc(C)cs2)n1 (centres unmarked) [IN11106-027-P1] | + (+ means >1 uM)
50 | COc1cc(NC2CCC3(CC2)CC3)nc(-c2nc(C)cs2)n1 [IN11106-033-P1] | + (+ means >1 uM)
